Results taken from ChEMBL document CHEMBL3734723, “Synthesis and anticancer activity of 6-heteroarylcoumarins” (2015).

Assays:
Format in all cases: functional
[1] = Growth inhibition of human RPMI8226 cells incubated for 48 hrs by sulforhodamine B assay; details: RPMI-8226, 48 h; for CC50: read-out: LC50 (the source's name)
[2] = tested on: NCI-H322M; test: Growth inhibition of human NCI-H322M cells incubated for 48 hrs by sulforhodamine B assay; details: for CC50: read-out: LC50 (the source's name)
[3] = tested on: NCI-H460; test: Growth inhibition of human NCI-H460 cells incubated for 48 hrs by sulforhodamine B assay; details: NCI-H460, 48 h; for CC50: read-out: LC50 (the source's name)
[4] = tested on: NCI-H522; test: Growth inhibition of human NCI-H522 cells incubated for 48 hrs by sulforhodamine B assay; details: NCI-H522, 48 h; for CC50: read-out: LC50 (the source's name)
[5] = tested on: HT-29; test: Growth inhibition of human HT-29 cells incubated for 48 hrs by sulforhodamine B assay; details: HT-29, 48 h; for CC50: read-out: LC50 (the source's name)
[6] = Growth inhibition of human SF268 cells incubated for 48 hrs by sulforhodamine B assay; details: SF-268, 48 h; for CC50: read-out: LC50 (the source's name)
[7] = Growth inhibition of human SF539 cells incubated for 48 hrs by sulforhodamine B assay; details: SF-539, 48 h; for CC50: read-out: LC50 (the source's name)
[8] = Growth inhibition of human SNB19 cells incubated for 48 hrs by sulforhodamine B assay; details: SNB-19, 48 h; for CC50: read-out: LC50 (the source's name)
[9] = tested on: Malme-3M; test: Growth inhibition of human MALME-3M cells incubated for 48 hrs by sulforhodamine B assay; details: for CC50: read-out: LC50 (the source's name)
[10] = tested on: SK-MEL-28; test: Growth inhibition of human SK-MEL-28 cells incubated for 48 hrs by sulforhodamine B assay; details: SK-MEL-28, 48 h; for CC50: read-out: LC50 (the source's name)
[11] = Growth inhibition of human OVCAR3 cells incubated for 48 hrs by sulforhodamine B assay; details: OVCAR-3, 48 h; for CC50: read-out: LC50 (the source's name)
[12] = Growth inhibition of human OVCAR8 cells incubated for 48 hrs by sulforhodamine B assay; details: OVCAR-8, 48 h; for CC50: read-out: LC50 (the source's name)
[13] = Growth inhibition of human SKOV3 cells incubated for 48 hrs by sulforhodamine B assay; details: SK-OV-3, 48 h; for CC50: read-out: LC50 (the source's name)
[14] = tested on: 786-0; test: Growth inhibition of human 786-0 cells incubated for 48 hrs by sulforhodamine B assay; details: 786-0, 48 h; for CC50: read-out: LC50 (the source's name)
[15] = tested on: ACHN; test: Growth inhibition of human ACHN cells incubated for 48 hrs by sulforhodamine B assay; details: for CC50: read-out: LC50 (the source's name)
[16] = tested on: SN12C; test: Growth inhibition of human SN12C cells incubated for 48 hrs by sulforhodamine B assay; details: for CC50: read-out: LC50 (the source's name)
[17] = Growth inhibition of human DU145 cells incubated for 48 hrs by sulforhodamine B assay; details: DU-145, 48 h; for CC50: read-out: LC50 (the source's name)
[18] = tested on: MDA-MB-231; test: Growth inhibition of human MDA-MB-231 cells incubated for 48 hrs by sulforhodamine B assay; details: MDA-MB-231, 48 h; for CC50: read-out: LC50 (the source's name)
[19] = Growth inhibition of human BT549 cells incubated for 48 hrs by sulforhodamine B assay; details: BT-549, 48 h; for CC50: read-out: LC50 (the source's name)
[20] = tested on: T47D; test: Growth inhibition of human T47D cells incubated for 48 hrs by sulforhodamine B assay; details: for CC50: read-out: LC50 (the source's name)
[21] = Growth inhibition of human leukemia cells after 48 hrs by sulforhodamine B assay; details: Leukemia cell; for CC50: read-out: LC50 (the source's name)
[22] = Growth inhibition of human non-small cell lung cancer cells after 48 hrs by sulforhodamine B assay; details: Cancer cell lines; for CC50: read-out: LC50 (the source's name)
[23] = tested on: NCI-H522; test: Cytotoxicity against human NCI-H522 cells assessed as cell growth at 10 uM incubated for 48 hrs by sulforhodamine B assay; details: NCI-H522, 48 h, read-out: Activity
[24] = tested on: SK-MEL-5; test: Cytotoxicity against human SK-MEL-5 cells assessed as cell growth at 10 uM incubated for 48 hrs by sulforhodamine B assay; details: SK-MEL-5, 48 h, read-out: Activity
[25] = Cytotoxicity against human HL-60(TB) cells assessed as cell growth at 10 uM incubated for 48 hrs by sulforhodamine B assay; details: HL-60, 48 h, read-out: Activity
[26] = tested on: A549; test: Cytotoxicity against human A549 cells assessed as cell growth at 10 uM incubated for 48 hrs by sulforhodamine B assay; details: A549, 48 h, read-out: Activity
[27] = Cytotoxicity against human HOP92 cells assessed as cell growth at 10 uM incubated for 48 hrs by sulforhodamine B assay; details: HOP-92, 48 h, read-out: Activity
[28] = Cytotoxicity against human SW620 cells assessed as cell growth at 10 uM incubated for 48 hrs by sulforhodamine B assay; details: SW-620, 48 h, read-out: Activity
[29] = Cytotoxicity against human SF295 cells assessed as cell growth at 10 uM incubated for 48 hrs by sulforhodamine B assay; details: SF-295, 48 h, read-out: Activity
[30] = Cytotoxicity against human SNB75 cells assessed as cell growth at 10 uM incubated for 48 hrs by sulforhodamine B assay; details: SNB-75, 48 h, read-out: Activity
[31] = Cytotoxicity against human LOXIMVI cells assessed as cell growth at 10 uM incubated for 48 hrs by sulforhodamine B assay; details: LOX IMVI, read-out: Activity
[32] = tested on: M14; test: Cytotoxicity against human M14 cells assessed as cell growth at 10 uM incubated for 48 hrs by sulforhodamine B assay; details: M14, 48 h, read-out: Activity
[33] = tested on: A498; test: Cytotoxicity against human A498 cells assessed as cell growth at 10 uM incubated for 48 hrs by sulforhodamine B assay; details: A498, 48 h, read-out: Activity
[34] = tested on: 786-0; test: Cytotoxicity against human 786-0 cells assessed as cell growth at 10 uM incubated for 48 hrs by sulforhodamine B assay; details: 786-0, 48 h, read-out: Activity
[35] = Cytotoxicity against human TK10 cells assessed as cell growth at 10 uM incubated for 48 hrs by sulforhodamine B assay; details: TK-10, 48 h, read-out: Activity

## Cc1cc(=O)oc2c(C)c(O)c(-c3ccnc(N)n3)cc12
[1]
  GI50: 55.1 µM
  TGI: > 100 µM
  CC50: > 100 µM
[2]
  GI50: 59 µM
  TGI: > 100 µM
  CC50: > 100 µM
[3]
  GI50: 2.44 µM
  TGI: > 100 µM
  CC50: > 100 µM
[4]
  GI50: 20.7 µM
  TGI: > 100 µM
  CC50: > 100 µM
[5]
  GI50: 6.72 µM
  TGI: > 100 µM
  CC50: > 100 µM
[6]
  GI50: 12.3 µM
  TGI: > 100 µM
  CC50: > 100 µM
[7]
  GI50: 8.33 µM
  TGI: > 100 µM
  CC50: > 100 µM
[8]
  GI50: 35.8 µM
  TGI: > 100 µM
  CC50: > 100 µM
[9]
  GI50: > 100 µM
  TGI: > 100 µM
  CC50: > 100 µM
[10]
  GI50: > 100 µM
  TGI: > 100 µM
  CC50: > 100 µM
[11]
  GI50: 37.7 µM
  TGI: > 100 µM
  CC50: > 100 µM
[12]
  GI50: 6.95 µM
  TGI: > 100 µM
  CC50: > 100 µM
[13]
  GI50: 28.3 µM
  TGI: > 100 µM
  CC50: > 100 µM
[14]
  GI50: 29.8 µM
  TGI: > 100 µM
  CC50: > 100 µM
[15]
  GI50: 2.39 µM
  TGI: > 100 µM
  CC50: > 100 µM
[16]
  GI50: 29.2 µM
  TGI: > 100 µM
  CC50: > 100 µM
[17]
  GI50: > 100 µM
  TGI: > 100 µM
  CC50: > 100 µM
[18]
  GI50: > 100 µM
  TGI: > 100 µM
  CC50: > 100 µM
[19]
  GI50: 47.8 µM
  TGI: > 100 µM
  CC50: > 100 µM
[20]
  GI50: 5 µM
  TGI: > 100 µM
  CC50: > 100 µM
[21]
  GI50: 31.9 µM
  TGI: > 100 µM
  CC50: > 100 µM
[22]
  GI50: 24.4 µM
  TGI: > 100 µM
  CC50: > 100 µM
[23]
  growth at 10 µM: 47%
[24]
  growth at 10 µM: 38.5%
[25]
  growth at 10 µM: -0.65%
[26]
  growth at 10 µM: 39.5%
[27]
  growth at 10 µM: 47.4%
[28]
  growth at 10 µM: 38.4%
[29]
  growth at 10 µM: 28.7%
[30]
  growth at 10 µM: 33.8%
[31]
  growth at 10 µM: 27.2%
[32]
  growth at 10 µM: 68.6%
[33]
  growth at 10 µM: 42.9%
[34]
  growth at 10 µM: 62.1%
[35]
  growth at 10 µM: 61.9%

## Cc1cc(=O)oc2c(C)c(O)c(-c3cc4ccc(F)cc4[nH]3)cc12
[1]
  GI50: 1.9 µM
  TGI: 6.19 µM
  CC50: > 100 µM
[2]
  GI50: 3.23 µM
  TGI: 13.1 µM
  CC50: 88.3 µM
[3]
  GI50: 2.82 µM
  TGI: 10.5 µM
  CC50: 66.6 µM
[4]
  GI50: 2.78 µM
  TGI: 9.09 µM
  CC50: 48.9 µM
[5]
  GI50: 10.2 µM
  TGI: 23 µM
  CC50: 52 µM
[6]
  GI50: 3.42 µM
  TGI: 15 µM
  CC50: 83.3 µM
[7]
  GI50: 2.94 µM
  TGI: 14.1 µM
  CC50: 59.4 µM
[8]
  CC50: > 100 µM
[9]
  GI50: 1.95 µM
  TGI: 7.32 µM
  CC50: 50.2 µM
[10]
  GI50: 4.58 µM
  TGI: 18.3 µM
  CC50: 64.2 µM
[11]
  GI50: 2.28 µM
  TGI: 7.02 µM
  CC50: 37.5 µM
[12]
  GI50: 3.88 µM
  TGI: 24 µM
  CC50: > 100 µM
[13]
  GI50: 2.93 µM
  TGI: 13.1 µM
  CC50: 64.9 µM
[14]
  GI50: 4.1 µM
  TGI: 14 µM
  CC50: 42.6 µM
[15]
  GI50: 2.64 µM
  TGI: 10.6 µM
  CC50: 74.7 µM
[16]
  GI50: 3.32 µM
  TGI: 13 µM
  CC50: 48 µM
[17]
  GI50: 3.53 µM
  TGI: 18.4 µM
  CC50: > 100 µM
[18]
  GI50: 2.49 µM
  TGI: 10.2 µM
  CC50: > 100 µM
[19]
  GI50: 3.57 µM
  TGI: 13.6 µM
  CC50: 65.9 µM
[20]
  GI50: 2.39 µM
  TGI: 22.1 µM
  CC50: > 100 µM
[21]
  GI50: 3.08 µM
  TGI: 19.8 µM
  CC50: > 100 µM
[22]
  GI50: 2.75 µM
  TGI: 12.4 µM
  CC50: 64.1 µM
[23]
  growth at 10 µM: 15%
[24]
  growth at 10 µM: 8.97%
[25]
  growth at 10 µM: 27.9%
[26]
  growth at 10 µM: 39.3%
[27]
  growth at 10 µM: -9.31%
[28]
  growth at 10 µM: 58.6%
[29]
  growth at 10 µM: 33%
[30]
  growth at 10 µM: 68.8%
[31]
  growth at 10 µM: 36.4%
[32]
  growth at 10 µM: 52.3%
[33]
  growth at 10 µM: 52.5%
[34]
  growth at 10 µM: 42.2%
[35]
  growth at 10 µM: 59.9%
